Test results taken from US12653775B2, “Canine topical formulations and methods thereof” (priority 2023, dated 2026).

Tests used:
[1] = test system: Methicillin-resistant Staphylococcus pseudintermedius (MRSP) clinical isolate biofilm; assay: Minimum biofilm eradication concentration (MBEC) assay, Calgary Biofilm Device; type: cell-based
Procedure: (§1) Minimum biofilm eradication concentration (MBEC) values provide estimates on the concentration of an antimicrobial product required to kill bacterial biofilm.
(§2) The CBD plate was incubated with
(§3) All test articles were tested in triplicate.

[2] = test system: biofilms of Pseudomonas aeruginosa; assay: In vitro biofilm eradication study; type: cell-based
[3] = test system: biofilms of S. pseudintermedius; assay: In vitro biofilm eradication study; type: cell-based
[4] = test system: P. aeruginosa PAE 1103 (multi-drug resistant clinical isolate) biofilm; type: cell-based, Pseudomonas aeruginosa; conditions: MDR P. aeruginosa; TP1 undiluted, micronized silver at lowest concentration 0.05% v/v
Procedure: as §1, §2, §3

Row | Substance | MBEC ([1]; MRSP clinical isolate biofilm, treated 24 hours at 35° C.) | biofilm eradication (in words) ([1]; MRSP, TP1 undiluted, micronized silver at lowest concentration 0.05% v/v) | biofilm eradication (in words) [2] | biofilm eradication (in words) [3] | biofilm eradication (in words) [4]
1 | Gentamicin [reference compound] | 0.25 µg/mL | – | – | – | –
2 | Silver ions | – | effective in eradicating the biofilms | effective in eradicating the biofilms | effective in eradicating the biofilms | effective in eradicating the biofilms
